Assay results taken from patent US5254533A, “Elfamycin” (Rhone-Poulenc Rorer S.A., priority 1990, dated 1993).

Experiments:
Experiment in all cases: MIC, antibacterial activity (agar dilution)
Assay type in all cases: cell-based
[1] = test system: Staphylococcus aureus Weichbrodt; settings: Mueller Hinton Agar, about 18 h at about 37° C
[2] = test system: Bacteroides fragilis ATCC 25285; settings: ATCC25285, anaerobic, Mueller Hinton Agar + 2% Fildes, about 48 h at about 37° C
[3] = test system: Bacteroides fragilis 479R; settings: anaerobic, Mueller Hinton Agar + 2% Fildes, about 48 h at about 37° C
[4] = test system: Proteus mirabilis Villette; settings: Mueller Hinton Agar, about 18 h at about 37° C
Clostridium septicum = settings: anaerobic, Mueller Hinton Agar + 2% Fildes, about 48 h at about 37° C
Method: (§1) Description of the test method used
(§2) The strains used, identified in the following table, were thawed at the time of use and then diluted to obtain the following concentrations:
(§3) 10^7 bacteria/ml for the aerobic bacteria
(§4) 10^6 bacteria/ml for the anaerobic bacteria.
(§5) A stock suspension of the product of formula (II) was prepared at a concentration of 3000 mg/1 in water. It was then diluted with water to obtain concentrations of 300 mg/l, 100 mg/l, 50 mg/l and 25 mg/l.
(§6) The culture media were the following:
(§7) Mueller Hinton Agar (MHA) for the aerobic cultures
(§8) Mueller Hinton Agar (MHA)+2% Fildes (MHA) for the anaerobic cultures.
(§9) Each dilution of product was added to 20 mls of the culture medium maintained supercooled at 45° C., and the medium was then poured into Petri dishes. After gentle agitation, the dishes were dried open for about 1 hour at about 37° C.
(§10) Inoculation was carried out with a DENLEY multipoint inoculator, which deposited 10^-3 ml of each inoculum per spot.
(§11) Reading was performed after about 18 hours of incubation at about 37° C. for the aerobes and about 48 hours at about 37° C. for the anaerobes.
(§12) The minimal inhibitory concentration (MIC) was the lowest concentration for which no growth was observed.

Escherichia coli DCO = settings: Mueller Hinton Agar, about 18 h at about 37° C
Method: as §1, §2, §3, §4, §5, §6, §7, §8, §9, §10, §11, §12

[5] = test system: Staphylococcus aureus S tA 1; settings: STA1, Mueller Hinton Agar, about 18 h at about 37° C

Measured: MIC

C/C=C\C=C\C1OC(O)(C(CC)C(=O)NC/C=C/C=C(\C)C(OC)C(C)C2CC(O)C(/C=C/C=C/C=C/C(=O)O)O2)C(O)C(O)C1(C)C (stereo not shown) [formula (II)]
> 300 µg/mL: [1] | [4] | Escherichia coli DCO | [5]
> 100 µg/mL: [2] | [3] | Clostridium septicum
